According to PubChem BioAssay (NCI):
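Following 48 hours of exposure in 96-well plates, responses at five concentrations were used to interpolate endpoints linearly. GI50 marks 50% less growth. Definition used: TGI = concentration required for complete inhibition of growth.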 Where a SMILES comes first, the peptide text is derived from it. The star is where a group is joined. Fmoc = O=C(OCC1c2ccccc2-c2ccccc21)*; Boc = CC(C)(C)OC(=O)*

What was measured:
Experiment in all cases: inhibition of tumour cell growth, NCI panel, 48 h
ACHN renal = system: ACHN renal
EKVX NSCLC = system: EKVX NSCLC
HCT-15 colon = system: HCT-15 colon
HOP-92 NSCLC = system: HOP-92 NSCLC
MOLT-4 leukemia = system: MOLT-4 leukemia
NCI-H460 lung = system: NCI-H460 lung
RPMI-8226 leukemia = system: RPMI-8226 leukemia
SF-268 CNS = system: SF-268 CNS
TK-10 renal = system: TK-10 renal

SMILES	TGI (ACHN renal) [µM]	TGI (EKVX NSCLC) [µM]	TGI (HCT-15 colon) [µM]	TGI (HOP-92 NSCLC) [µM]	TGI (MOLT-4 leukemia) [µM]	TGI (NCI-H460 lung) [µM]	TGI (RPMI-8226 leukemia) [µM]	TGI (SF-268 CNS) [µM]	TGI (TK-10 renal) [µM]	GI50 (ACHN renal) [µM]	GI50 (HCT-15 colon) [µM]	GI50 (HOP-92 NSCLC) [µM]	GI50 (MOLT-4 leukemia) [µM]	GI50 (NCI-H460 lung) [µM]	GI50 (RPMI-8226 leukemia) [µM]	GI50 (SF-268 CNS) [µM]	GI50 (TK-10 renal) [µM]
CC(C)(C)OC(=O)NCCCCC(NC(=O)OCC1c2ccccc2-c2ccccc21)C(=O)N1CCCC1C(=O)NCC(N)=O (stereo not drawn) (Fmoc-Lys(Boc)-Pro-Gly-NH2; configuration not given here)	34.6	> 100	30.1	48.2	77.3	37.9	> 100	> 100	> 100								
O=C1/C(=C/c2cccc(Br)c2)CSC/C1=C\c1cccc(Br)c1	9.88	19.9	15.4	7.43		7.26	6.42	24.2	16.8								
Cc1cc(C)c2c(n1)S(=O)(=O)N(CCCN1CCN(c3cccc(C(F)(F)F)c3)CC1)c1c-2nn(C)c1C	> 100	> 100	> 100	> 100	> 100	> 100		> 100	> 100								
CN1C(=O)[C@@H]2[C@@H]3c4ccccc4N(S(=O)(=O)C(F)(F)F)[C@@H]3c3[nH]c4ccccc4c3[C@@H]2C1=O	> 100	> 100	> 100	35.4	47	> 100	> 100	> 100	> 100								
CC(C)C1=CCC2C(=C1)CCC1C(C)(C(=O)O)CCCC21C (stereo unspecified) (tested in a mixture with another compound)	> 100	> 100	> 100	> 100	> 100		70.2	> 100	> 100								
CCCCN1C(=O)c2c(-c3sccc3N)sc(-c3sccc3N)c2C1=O	> 100	> 83.7	> 100	> 100	> 24.4	> 100	55	> 74.3	72.5								
O=S(=O)(O)ON=C1c2ccccc2-c2ccccc21	> 100	> 100		> 100	> 100	> 100	> 100	> 100	> 100								
O=C(/C=C/c1ccc(O)c(O)c1)c1cc(O)cc(O)c1	28.9	57.4	29.2	26.8	> 100		> 100	42.8	39.7								
CCOC(=O)c1c(N2CCCC2)[nH]c(=O)c(C(c2ccco2)c2c(O)c(C(=O)OCC)c(N3CCCC3)[nH]c2=O)c1O	> 100	> 100	> 100	> 100	> 100	> 100	> 100	> 100	> 100								
Cc1cccnc1/N=C/c1c(O)n(C)c(=O)[nH]c1=O	> 100	> 100	> 100	> 100	> 100	> 100		> 100	> 100								
CCCCNC(=S)Nc1nc(C(=O)NNC(=S)NC2CCCCC2)cs1	> 100	> 100	> 100	> 100			> 100	> 100	> 100								
CO/N=C(\C)COc1ccc2c(=O)c(-c3ccccc3)coc2c1	38.8		> 100	43.9	> 100	> 100	> 100	71	42.9	19.2	40.1	17.2	> 100	30.4	> 100	24.5	20
CCc1ccc2nc(-c3ccc(O)cc3)sc2c1	38.2		29.4		40.8	41.3	35.3	37.8	35.7								
Cc1cc(NC[C@H](O)[C@H](O)[C@H](O)CO)c(Sc2cc(=O)[nH]c(=O)[nH]2)cc1C	> 62.5	> 62.5	> 62.5	> 62.5	> 62.5	> 62.5	> 62.5	> 62.5	> 62.5								
Cn1c2ccccc2c2c(=O)[nH]c(=O)[nH]c21	> 100	> 100	> 100	> 100	> 100		> 100	> 100	> 100								
Cc1ccc(OC2CC(n3cnc4ncnc(Cl)c43)OC2Oc2ccc(C)cc2)cc1 (stereo unspecified)	10.5	> 100	> 100	> 100	> 100	> 100		50.1	> 100								
O=C1CCCC/C1=C\c1ccc(Br)cc1	9.18	62.8		35.1	6.24	98.2	57.3	36.3	30.9								
CCCCCCCCCCCCCC[S+](C)C	> 10	9.87	> 10	3.67	2.85	6.78	2.65	3.99	3.75								
CCOC(=O)C(C(=S)Nc1ccccc1)c1nn2c(=O)cc(C)nc2s1 (stereo unspecified)	66.6	49.2	85	57.4	69.1	81.1	67.5	> 100	86.8								
O=C(CCCCCCC(=O)Nc1cccnc1)NO	> 92.2	> 100	> 100	> 100	> 100	> 100	> 29.4	> 61	> 100								
O=c1[nH]c(Nc2cc(Cl)cc(Cl)c2)nc2nc[nH]c12	> 75	> 75	> 75	> 75	> 75	> 75	> 75	> 75	> 75								
CCOC(=O)Cc1nc2sc(S(N)(=O)=O)nn2c1Br	93.3	79.4	77.5	41.1		> 100	73.5	> 100	> 100								
